Measured values as given in PubChem BioAssay AID192 (DTP/NCI, 2004).
Toxic doses and inconclusive results are not listed.

System: BDF1 mice, B16 melanoma ip, median survival T/C
Assay: NCI In Vivo Anticancer Drug Screen. Data for tumor model B16 Melanoma (intraperitoneal) in B6D2F1 (BDF1) mice
Settings: endpoint: median survival time, higher = longer survival
Summary of the method: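 Vehicle-treated animals serve as the reference (C); treated animals (T) are scored for survival or tumor size after tumor transplantation.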

[1] = dose: 75.0 mg/kg/injection, schedule: Q01DX009 (ip), vehicle: Klucel (hydroxypropylcellulose) (HPC)
[2] = dose: 150.0 mg/kg/injection, schedule: Q01DX009 (ip), vehicle: Klucel (hydroxypropylcellulose) (HPC)
[3] = dose: 300.0 mg/kg/injection, schedule: Q01DX009 (ip), vehicle: Klucel (hydroxypropylcellulose) (HPC)
[4] = dose: 12.5 mg/kg/injection, schedule: Q01DX009 (ip), vehicle: saline with Tween-80
[5] = dose: 25.0 mg/kg/injection, schedule: Q01DX009 (ip), vehicle: saline with Tween-80
[6] = dose: 50.0 mg/kg/injection, schedule: Q01DX009 (ip), vehicle: saline with Tween-80
[7] = dose: 100.0 mg/kg/injection, schedule: Q01DX009 (ip), vehicle: saline with Tween-80
[8] = dose: 6.25 mg/kg/injection, schedule: Q01DX009 (ip), vehicle: saline
[9] = dose: 12.5 mg/kg/injection, schedule: Q01DX009 (ip), vehicle: saline
[10] = dose: 25.0 mg/kg/injection, schedule: Q01DX009 (ip), vehicle: saline
[11] = dose: 100.0 mg/kg/injection, schedule: Q01DX009 (ip), vehicle: saline
[12] = dose: 200.0 mg/kg/injection, schedule: Q01DX009 (ip), vehicle: Klucel (hydroxypropylcellulose) (HPC)

`O=C(Nc1cccc(Cl)c1)OCC(Cl)(Cl)Cl` was tested, and the T/C [1] was 109 % of control, the T/C [2] was 103 % of control and the T/C [3] was 103 % of control.

In the case of `Cc1cc(C)nc(NC(N)=NCCc2ccccc2)n1`, the T/C [4] is reported as 104 % of control, the T/C [5] is reported as 88 % of control and the T/C [6] is reported as 97 % of control.

With `COc1cccc(CN(C)CCC(=O)O)c1` the T/C (dose: 100.0 mg/kg/injection, schedule: Q04DX003 (ip), vehicle: Klucel (hydroxypropylcellulose) (HPC)) was 104 % of control, the T/C (dose: 200.0 mg/kg/injection, schedule: Q04DX003 (ip), vehicle: Klucel (hydroxypropylcellulose) (HPC)) was 102 % of control and the T/C (dose: 400.0 mg/kg/injection, schedule: Q04DX003 (ip), vehicle: Klucel (hydroxypropylcellulose) (HPC)) was 101 % of control.

With `C1=CC2CC3(OCCO3)C2C1` (centres undefined) the T/C [6] was 88 % of control, the T/C [7] was 106 % of control and the T/C (dose: 200.0 mg/kg/injection, schedule: Q01DX009 (ip), vehicle: saline with Tween-80) was 93 % of control.

For `Cc1c(Cl)cccc1NC(=O)C(c1ccccc1)c1ccccc1`, the T/C [5] was 99 % of control, the T/C [6] was 86 % of control and the T/C [7] was 91 % of control.

`CC1CC(NC(=S)S)CC(C)(C)C1` (centres undefined) was tested, and the T/C (dose: 0.25 mg/kg/injection, schedule: Q01DX009 (ip), vehicle: Klucel (hydroxypropylcellulose) (HPC)) was 96 % of control, the T/C (dose: 0.5 mg/kg/injection, schedule: Q01DX009 (ip), vehicle: Klucel (hydroxypropylcellulose) (HPC)) was 96 % of control and the T/C (dose: 1.0 mg/kg/injection, schedule: Q01DX009 (ip), vehicle: Klucel (hydroxypropylcellulose) (HPC)) was 100 % of control.

For `[Cl][Pd]([Cl])([Cl])[Cl]`, the T/C [8] was 103 % of control and the T/C [9] was 92 % of control.

In the case of `CC(C)C(=O)[O][Sn]([c]1ccccc1)([c]1ccccc1)[c]1ccccc1`, the T/C (dose: 3.0 mg/kg/injection, schedule: Q01DX009 (ip), vehicle: saline with Tween-80) is reported as 108 % of control, the T/C (dose: 6.0 mg/kg/injection, schedule: Q01DX009 (ip), vehicle: saline with Tween-80) is reported as 105 % of control and the T/C (dose: 12.0 mg/kg/injection, schedule: Q01DX009 (ip), vehicle: saline with Tween-80) is reported as 124 % of control. The T/C [4] was 100 % of control.

In the case of `C[Si](C)(O[Si](C)(C)c1ccccc1)c1ccccc1`, the T/C [10] is reported as 123 % of control and the T/C [11] is reported as 114 % of control.

In the case of `Cc1cccc(NC(=O)c2ccccc2C(=O)O)c1C`, the T/C (dose: 100.0 mg/kg/injection, schedule: Q01DX009 (ip), vehicle: Klucel (hydroxypropylcellulose) (HPC)) is reported as 94 % of control, the T/C [12] is reported as 94 % of control and the T/C (dose: 400.0 mg/kg/injection, schedule: Q01DX009 (ip), vehicle: Klucel (hydroxypropylcellulose) (HPC)) is reported as 97 % of control.

`CCCCCCCCCCCCCCCCCC(=O)NNCCO` was tested, and the T/C [6] was 86 % of control.

`O=[N+]([O-])c1ccc(/C=C2/c3cc(Cl)ccc3-c3c(Cl)cc(Cl)cc32)cc1` was tested, and the T/C (dose: 6.25 mg/kg/injection, schedule: Q01DX009 (ip), vehicle: saline with Tween-80) was 90 % of control and the T/C [5] was 88 % of control.

`COc1cc2c(cc1OC)C(OC)N(C)c1c-2ccc2cc(OC)c(OC)cc12` (centres undefined) was tested, and the T/C (dose: 37.5 mg/kg/injection, schedule: Q01DX009 (ip), vehicle: Klucel (hydroxypropylcellulose) (HPC)) was 98 % of control, the T/C [1] was 95 % of control and the T/C [2] was 100 % of control. For the same molecule, the T/C [3] was 100 % of control.

For `CCOC(=O)N1CCN(CCCCCOc2ccccc2C2CCCCC2)CC1`, the T/C [6] was 103 % of control.

With `CC1(C)COCN1COCCOCN1COCC1(C)C` the T/C [8] was 102 % of control, the T/C [9] was 103 % of control and the T/C [10] was 113 % of control. The T/C (dose: 50.0 mg/kg/injection, schedule: Q01DX009 (ip), vehicle: saline) was 118 % of control and the T/C [11] was 120 % of control.

`CCOC(=O)C(C)Oc1ccc(Cl)cc1` (centres undefined) was tested, and the T/C (dose: 50.0 mg/kg/injection, schedule: Q01DX009 (ip), vehicle: other) was 111 % of control, the T/C (dose: 100.0 mg/kg/injection, schedule: Q01DX009 (ip), vehicle: other) was 104 % of control and the T/C (dose: 200.0 mg/kg/injection, schedule: Q01DX009 (ip), vehicle: other) was 106 % of control. For the same molecule, the T/C (dose: 400.0 mg/kg/injection, schedule: Q01DX009 (ip), vehicle: other) was 102 % of control.

`COc1cc2ccc(CC(=O)NCc3ccccc3)cc2cc1OC` was tested, and the T/C [7] was 122 % of control, the T/C (dose: 135.0 mg/kg/injection, schedule: Q01DX009 (ip), vehicle: Klucel (hydroxypropylcellulose) (HPC)) was 123 % of control and the T/C [12] was 110 % of control.
